This passage reports IC50 and Activity results from ChEMBL document CHEMBL1145685, “In vitro and in vivo antiplasmodial activity of cryptolepine and related alkaloids from Cryptolepis sanguinolenta” (J Nat Prod, 1997).

In assay [1] the test system is Plasmodium falciparum. Put plainly: Antiplasmodial activity against chloroquine-sensitive Plasmodium falciparum D6 infected human erythrocytes by [3H]hypoxanthine uptake. In kind it is functional, organism-based.
Assay [2] deals with Plasmodium falciparum. Put plainly: Antiplasmodial activity against chloroquine-resistant Plasmodium falciparum W2 infected human erythrocytes by [3H]hypoxanthine uptake. In kind it is functional, organism-based.
Assay [3] deals with Plasmodium falciparum. Put plainly: Antiplasmodial activity against Plasmodium falciparum K1 infected human erythrocytes by [3H]hypoxanthine uptake. Type of assay: functional, organism-based.
Assay [4] has as its system Plasmodium berghei. Put plainly: Antimalarial activity as reduced parasitaemia against Plasmodium berghei infected Swiss albino mice (Mus musculus) at 50 mg/kg/day peroral dose for 4 days. Type of assay: functional. Details: scale not given: the % may be the effect or the level left. To be noted: route oral.
Assay [5] relates to Plasmodium berghei. Put plainly: Antimalarial activity as reduced parasitaemia against Plasmodium berghei infected Swiss albino mice (Mus musculus) at 5 mg/kg/day peroral dose for 4 days. To be noted: route oral. Type of assay: functional. Further details: scale not given: the % may be the effect or the level left.
Assay [6] deals with Plasmodium yoelii. Nature of the assay: Antimalarial activity as reduced parasitaemia against Plasmodium berghei yoelii infected Swiss albino mice (Mus musculus) at 5 mg/kg/day peroral dose for 4 days. Type of assay: functional. Details: scale not given: the % may be the effect or the level left. To be noted: route oral.
For assay [7], the system named is Plasmodium yoelii. Put plainly: Antimalarial activity as reduced parasitaemia against Plasmodium berghei yoelii infected Swiss albino mice (Mus musculus) at 50 mg/kg/day peroral dose for 4 days. The settings on record: route oral. Further details: scale not given: the % may be the effect or the level left. In kind it is functional.

Values after ≈ are worked out from the molar mass of the structure shown.

As for `Cn1c2c3ccccc3nc-2c(O)c2ccccc21` [HYDROXYCRYPTOLEPINE], the IC50 stood at 0.031 µg/mL (≈ 0.125 µM) in the assay with Plasmodium falciparum [1], 0.059 µg/mL (≈ 0.238 µM) in the assay with Plasmodium falciparum [2] and 0.045 µg/mL (≈ 0.181 µM) with Plasmodium falciparum [3]. This compound returned an Activity in the assay with Plasmodium berghei [4] of 43.2%.
Turning to `CCN(CC)CCCC(C)Nc1ccnc2cc(Cl)ccc12` (stereo unspecified) [CHLOROQUINE], the Activity with Plasmodium berghei [5] turned out to be 2.2%; in the assay with Plasmodium yoelii [6] it was 1.65%.
Take `C[n+]1c2ccccc2cc2[n-]c3ccccc3c21.Cl` [CRYPTOLEPINE HYDROCHLORIDE]: the IC50 in the assay on Plasmodium falciparum [1] was 0.041 µg/mL; in the assay on Plasmodium falciparum [2], 0.052 µg/mL; in the assay with Plasmodium falciparum [3], 0.062 µg/mL. The Activity in the assay with Plasmodium berghei [4] came out at 15.6%; in the assay on Plasmodium yoelii [7], 10.8%.
Regarding `c1ccc2nc3c(cc2c1)[nH]c1ccccc13` [QUINDOLINE], the results for the IC50 with Plasmodium falciparum [1], in the assay on Plasmodium falciparum [2] and with Plasmodium falciparum [3] were 0.063 µg/mL (≈ 0.289 µM), 0.108 µg/mL (≈ 0.495 µM) and 0.087 µg/mL (≈ 0.399 µM), respectively. The figures for the Activity with Plasmodium berghei [4] and in the assay on Plasmodium yoelii [7] were 48.2% and 42.1%, respectively.
For the compound `C=C[C@H]1CN2CC[C@H]1C[C@H]2[C@H](O)c1ccnc2ccc(OC)cc12` [QUININE], the results for the IC50 with Plasmodium falciparum [1] and in the assay on Plasmodium falciparum [3] were 0.0176 µg/mL (≈ 0.0542 µM) and 0.0352 µg/mL (≈ 0.108 µM), respectively.
`OC(c1cc(C(F)(F)F)nc2c(C(F)(F)F)cccc12)C1CCCCN1` (stereo unspecified) [MEFLOQUINE]: the IC50 with Plasmodium falciparum [1] came to 0.0063 µg/mL (≈ 0.0167 µM); in the assay with Plasmodium falciparum [2], 0.0051 µg/mL (≈ 0.0135 µM).
In the case of `C[C@@H]1CC[C@H]2[C@@H](C)C(=O)O[C@@H]3O[C@@]4(C)CC[C@@H]1[C@]32OO4` [ARTEMISININ], the IC50 in the assay on Plasmodium falciparum [1] is 0.0025 µg/mL (≈ 0.00885 µM); in the assay with Plasmodium falciparum [2] it was 0.0027 µg/mL (≈ 0.00956 µM); in the assay with Plasmodium falciparum [3] it was 0.0033 µg/mL (≈ 0.0117 µM).
Turning to `C[n+]1c2ccccc2cc2[n-]c3ccccc3c21` [CRYPTOLEPINE], the IC50 worked out at 0.027 µg/mL (≈ 0.116 µM) in the assay on Plasmodium falciparum [1], 0.041 µg/mL (≈ 0.177 µM) with Plasmodium falciparum [2] and 0.033 µg/mL (≈ 0.142 µM) in the assay with Plasmodium falciparum [3]. Further, the Activity in the assay on Plasmodium berghei [4] amounted to 45.4%; in the assay on Plasmodium yoelii [7], 13.7%.
For the compound `Cn1c2nc3ccccc3c-2cc2ccccc21` [NEOCRYPTOLEPINE], the IC50 amounted to 0.035 µg/mL (≈ 0.151 µM) in the assay on Plasmodium falciparum [1], 0.065 µg/mL (≈ 0.28 µM) with Plasmodium falciparum [2] and 0.051 µg/mL (≈ 0.22 µM) in the assay with Plasmodium falciparum [3].
